The text below walks through data of US20180169145A1, “COMPOSITIONS AND METHODS FOR USING LAMELLAR BODIES FOR THERAPEUTIC PURPOSES” (priority 2015, published 2018).

Where two headings read alike, the source gives them in different places.

The test system of experiment [1] is Pseudomonas aeruginosa. Description: MBEC assay: sessile (biofilm) MIC of antibiotics in absence and presence of LMS-611. Particulars: for sessile MIC + LMS: in presence of LMS-611 (10 mg/mL); for reduction of sessile MIC of the antibiotic by LMS-611: PA strains, in combination with LMS-611; for MIC: Pseudomonas aeruginosa; for MIC / sessile MIC: antibiotic alone; for effect of LMS-611 with antibiotic in reducing biofilm MICs, compared with antibiotic alone: strain PA01, FIG. 14-17. It is filed as cell-based. The procedure:
Pseudomonas aeruginosa strains PA01, PAl4, two clinical Cystic Fibrosis (CF) strains […], YH1 and Burkholderia cenocepacia strains […]7 and YHBCC8 were grown on a Nunc Immunosorp PEG plate model for 48 h on a rocking platform. […] Scanning electron microscopy was used to assess the treated biofilms.

In experiment [2] the test system is Pseudomonas aeruginosa. Description: Artificial sputum medium (ASM) biofilm assay. The experiment is classed as cell-based. Particulars: for bacterial kill of antibiotic with LMS-611: LMS-611 at 40 μg/ml. The text has this: ASM is artificial sputum medium.
Images of PA biofilm in ASM. Quantification of bacterial count from the ASM biofilm (CFU/mL).
In vitro, Artificial Sputum Models (ASM), considered to represent biofilm typical of that seen in CF, were used to study Pseudomonas aeruginosa infection.
Pyocyanin, a blue-green phenazine pigment produced by P. aeruginosa and controlled by the quorum sensing system (a system of inter-bacterial signalling which correlates to population density) and thus its presence and concentration in a bacterial culture can be used to give an indication of the strength of quorum sensing activity.
Measurement of metabolic activity of Pseudomonas aeruginosa in the Artificial Sputum Model (ASM) using a Resazurin assay, in which the fluorescence detected is directly proportional to the metabolic activity of the bacteria (FIG. 3).

Another experiment concerns Burkholderia cenocepacia. Description: MBEC assay: sessile (biofilm) MIC of antibiotics in absence and presence of LMS-611. It is filed as cell-based. Particulars: for MIC: Burkholderia cenocepacia. The procedure:
Pseudomonas aeruginosa strains PA01, PAl4, two clinical Cystic Fibrosis (CF) strains H183, YH1 and Burkholderia cenocepacia strains K56-2, YHBCC5, YHBCC6, YHBCC7 and YHBCC8 were grown on a Nunc Immunosorp PEG plate model for 48 h on a rocking platform. […] Scanning electron microscopy was used to assess the treated biofilms.

The test system of another experiment is PA strains. Nature of the experiment: Nebulisation of LMS-611 combined with antibiotic, multistage liquid impactor (MSLI). As to conditions: colistin: PA2783 strain, stages representing site of cystic fibrosis lung disease; tobramycin: PA strain 27853. More on the design: species or system Pseudomonas aeruginosa. The text has this: FIG. 18 illustrates the effect of nebulisation of LMS-611 when combined with Colistin with PA strain 217M using nebulisers with two different modes of operation (Pari-boy (jet-type) and Pari Flow (oscillating mesh)) wherein a multistage liquid impactor (MSLI) was used to measure the aerodynamic particle size distribution and deposition from nebulised LMS-611 compositions wherein the MSLI from Copley measures particle size in accordance with the European Pharmacopeia guidelines (Chapter […]) and the impactor has five stages simulating the various parts of the human respiratory system. Particles with the same inertia will impact upon a particular stage, whilst smaller particles will pass onto the next impaction stage such that by analysing the amount of LMS-611 deposited on the various stages the fine particle dose and fraction can be calculated wherein the fine particle dose (respirable fraction) is the proportion of the dose from an inhalation device (nebuliser) that is made available to the airways, and this correlates with the dose of LMS-611 that reaches the conducting airways during inhalation;

In the case of `C[C@H]1[C@H](NC(=O)/C(=N\OC(C)(C)C(=O)O)c2csc(N)n2)C(=O)N1S(=O)(=O)O` [Aztreonam], the “sessile MIC + LMS” value in the experiment with Pseudomonas aeruginosa [1] (PA strain H183) stood at 2000 µg/mL; with Pseudomonas aeruginosa [1] (PA strain PA01), 2000 µg/mL; in the experiment with Pseudomonas aeruginosa [1] (PA strain PA14), 2000 µg/mL; with Pseudomonas aeruginosa [1] (PA strain YH1) it was 1000 µg/mL. Further, the “reduction of sessile MIC of the antibiotic by LMS-611” value (from here on “reduction”) in the experiment on Pseudomonas aeruginosa [1] is recorded as 2-4 fold. The MIC with Pseudomonas aeruginosa [1] (PA14, PA strain PA14) is 4000 µg/mL; in the experiment with Pseudomonas aeruginosa [1] (PA strain H183), 4000 µg/mL; with Pseudomonas aeruginosa [1] (PA strain PA01), 4000 µg/mL; in the experiment with Pseudomonas aeruginosa [1] (PA strain YH1), 4000 µg/mL.
For the compound `O=C(O)c1cn(C2CC2)c2cc(N3CCNCC3)c(F)cc2c1=O` [Ciprofloxacin], the “bacterial kill of antibiotic with LMS-611” value with Pseudomonas aeruginosa [2] is on record as “total bacterial kill”.
For `C[C@@H](O)[C@H]1C(=O)N2C(C(=O)O)=C(S[C@@H]3CN[C@H](C(=O)N(C)C)C3)[C@H](C)[C@H]12` [Meropenem], the “sessile MIC + LMS” value in the experiment with Pseudomonas aeruginosa [1] (PA strain H183) turned out to be 1000 µg/mL; with Pseudomonas aeruginosa [1] (PA strain PA01), 2000 µg/mL; in the experiment on Pseudomonas aeruginosa [1] (PA strain PA14), 2000 µg/mL; in the experiment on Pseudomonas aeruginosa [1] (PA strain YH1), 1000 µg/mL. The “reduction” value with Pseudomonas aeruginosa [1] was 1-2 fold. Further, the MIC with Pseudomonas aeruginosa [1] (PA14, PA strain PA14) came out at 2000 µg/mL; in the experiment with Pseudomonas aeruginosa [1] (PA strain H183), 2000 µg/mL; in the experiment on Pseudomonas aeruginosa [1] (PA strain PA01), 2000 µg/mL; in the experiment on Pseudomonas aeruginosa [1] (PA strain YH1), 2000 µg/mL.
On to `CCN1CCN(C(=O)N[C@@H](C(=O)N[C@@H]2C(=O)N3[C@@H]2SC(C)(C)[C@@H]3C(=O)O)c2ccccc2)C(=O)C1=O` [Piperacillin], for which the MIC in the experiment on Burkholderia cenocepacia (BCC strain K56-2, antibiotic alone, read-out: sessile MIC) is 64000 µg/mL; in the experiment on Burkholderia cenocepacia (BCC strain K56-2, in presence of LMS-611 (10 mg/mL), read-out: sessile MIC + LMS) it was 16000 µg/mL; with Burkholderia cenocepacia (BCC strain YHBCC5, antibiotic alone, read-out: sessile MIC), 32000 µg/mL; in the experiment with Burkholderia cenocepacia (BCC strain YHBCC5, in presence of LMS-611 (10 mg/mL), read-out: sessile MIC + LMS) it was 4000 µg/mL; in the experiment on Burkholderia cenocepacia (BCC strain YHBCC6, antibiotic alone, read-out: sessile MIC), 32000 µg/mL; in the experiment on Burkholderia cenocepacia (BCC strain YHBCC6, in presence of LMS-611 (10 mg/mL), read-out: sessile MIC + LMS), 32000 µg/mL. The MIC was determined as 32000 µg/mL in the experiment on Burkholderia cenocepacia (BCC strain YHBCC7, antibiotic alone, read-out: sessile MIC); 4000 µg/mL in the experiment with Burkholderia cenocepacia (BCC strain YHBCC7, in presence of LMS-611 (10 mg/mL), read-out: sessile MIC + LMS); 8000 µg/mL in the experiment with Pseudomonas aeruginosa [1] (PA14, PA strain PA14); 4000 µg/mL in the experiment on Pseudomonas aeruginosa [1] (PA strain H183); 2000 µg/mL in the experiment on Pseudomonas aeruginosa [1] (PA strain PA01); 8000 µg/mL in the experiment on Pseudomonas aeruginosa [1] (PA strain YH1). Also, the “sessile MIC + LMS” value in the experiment on Pseudomonas aeruginosa [1] (PA strain H183) is 250 µg/mL; with Pseudomonas aeruginosa [1] (PA strain PA01) it was 250 µg/mL; with Pseudomonas aeruginosa [1] (PA strain PA14), 1000 µg/mL; in the experiment with Pseudomonas aeruginosa [1] (PA strain YH1), 1000 µg/mL. Further, in the experiment on Pseudomonas aeruginosa [1], the “reduction” value was 4-16 fold. In addition, in the experiment on Pseudomonas aeruginosa [1], the “effect of LMS-611 with antibiotic in reducing biofilm MICs, compared with antibiotic alone” value is reported as “more effective”.
`NC[C@H]1O[C@H](O[C@H]2[C@H](O)[C@@H](O[C@H]3O[C@H](CO)[C@@H](O)[C@H](N)[C@H]3O)[C@H](N)C[C@@H]2N)[C@H](N)C[C@@H]1O` [Tobramycin]: in the experiment with PA strains, the “bactericidal effect of nebulised antibiotic combined with LMS-611 by MSLI stage” value was “greater on the 6.8 μm, 3.1 μm and 1.7 μm stages”. Also, the “bacterial kill of antibiotic with LMS-611” value in the experiment with Pseudomonas aeruginosa [2] is on record as “total bacterial kill”. Moreover, the “bacterial clearance of LMS-611 plus antibiotic compared to antibiotic treatment alone” value in the experiment with Pseudomonas aeruginosa [2] (preformed biofilm, in combination with LMS-611) is listed as “significantly greater bacterial clearance”. In addition, the “sessile MIC + LMS” value is under 4000 µg/mL in the experiment on Pseudomonas aeruginosa [1] (PA strain H183), under 4000 µg/mL in the experiment with Pseudomonas aeruginosa [1] (PA strain PA01), under 4000 µg/mL with Pseudomonas aeruginosa [1] (PA strain PA14) and 500 µg/mL with Pseudomonas aeruginosa [1] (PA strain YH1). In addition, the “reduction” value with Pseudomonas aeruginosa [1] is given as 1-4 fold. Also, the MIC in the experiment on Pseudomonas aeruginosa [1] (PA14, PA strain PA14) is under 4000 µg/mL; in the experiment with Pseudomonas aeruginosa [1] (PA strain H183) it was under 4000 µg/mL; in the experiment on Pseudomonas aeruginosa [1] (PA strain PA01), under 4000 µg/mL; with Pseudomonas aeruginosa [1] (PA strain YH1), 2000 µg/mL.
For `CC(C)(O/N=C(\C(=O)N[C@@H]1C(=O)N2C(C(=O)[O-])=C(C[n+]3ccccc3)CS[C@H]12)c1csc(N)n1)C(=O)O` [ceftazidime], in the experiment with Pseudomonas aeruginosa [1], the “effect of LMS-611 with antibiotic in reducing biofilm MICs, compared with antibiotic alone” value was “more effective”.
As to `CC[C@H]1OC(=O)[C@H](C)[C@@H](O[C@H]2C[C@@](C)(OC)[C@@H](O)[C@H](C)O2)[C@H](C)[C@@H](O[C@@H]2O[C@H](C)C[C@H](N(C)C)[C@H]2O)[C@](C)(O)C[C@@H](C)C(=O)[C@H](C)[C@@H](O)[C@]1(C)O` [erythromycin], in the experiment on Burkholderia cenocepacia (BCC strains, in combination with LMS-611), the “reduction” value is given as “No effect”.
Gentamicin: the “sessile MIC” value in the experiment with Burkholderia cenocepacia (BCC strain K56-2, antibiotic alone) was 256000 µg/mL; in the experiment with Burkholderia cenocepacia (BCC strain YHBCC5, antibiotic alone), over 256000 µg/mL; in the experiment with Burkholderia cenocepacia (BCC strain YHBCC6, antibiotic alone), 64000 µg/mL; in the experiment with Burkholderia cenocepacia (BCC strain YHBCC7, antibiotic alone), 128000 µg/mL; in the experiment on Pseudomonas aeruginosa [1] (PA strain H183), 4000 µg/mL; in the experiment with Pseudomonas aeruginosa [1] (PA strain PA01), 4000 µg/mL. In addition, the “sessile MIC” value in the experiment with Pseudomonas aeruginosa [1] (PA strain PA14) was found to be 4000 µg/mL; with Pseudomonas aeruginosa [1] (PA strain YH1), 500 µg/mL. The “sessile MIC + LMS” value turned out to be 64000 µg/mL with Burkholderia cenocepacia (BCC strain K56-2, in presence of LMS-611 (10 mg/mL)); 256000 µg/mL in the experiment with Burkholderia cenocepacia (BCC strain YHBCC5, in presence of LMS-611 (10 mg/mL)); 16000 µg/mL with Burkholderia cenocepacia (BCC strain YHBCC6, in presence of LMS-611 (10 mg/mL)); 16000 µg/mL in the experiment with Burkholderia cenocepacia (BCC strain YHBCC7, in presence of LMS-611 (10 mg/mL)); 500 µg/mL with Pseudomonas aeruginosa [1] (PA strain H183); 500 µg/mL in the experiment with Pseudomonas aeruginosa [1] (PA strain PA01). The “sessile MIC + LMS” value with Pseudomonas aeruginosa [1] (PA strain PA14) was 500 µg/mL. Also, the “reduction” value in the experiment on Pseudomonas aeruginosa [1] is 4-8 fold. In addition, the “effect of LMS-611 with antibiotic in reducing biofilm MICs, compared with antibiotic alone” value in the experiment on Pseudomonas aeruginosa [1] is recorded as “more effective”.
colistin: in the experiment on PA strains, the “bactericidal effect of nebulised antibiotic combined with LMS-611 by MSLI stage” value is given as “greatest bactericidal effect”. The “effect of LMS-611 with antibiotic in reducing biofilm MICs, compared with antibiotic alone” value in the experiment on Pseudomonas aeruginosa [1] is “more effective”.
